Test system: SARS-CoV-2
Experiment: Antiviral activity against replicon RNA harboring SARS-CoV-2 infected in human Huh-7 cells assessed as inhibition of viral replication
Format: functional, organism-based
Settings: Severe acute respiratory syndrome coronavirus 2, Huh-7

Q: For `COC(=O)/C=C/[C@H](C[C@@H]1CCNC1=O)NC(=O)[C@@H]1[C@@H]2[C@H](CN1C(=O)[C@@H](NC(=O)C(F)(F)F)C(C)(C)C)C2(C)C`, which EC50 is on record?
A: The EC50 was 45 nM.

Q: For `CC(C)(C)[C@H](NC(=O)C(F)(F)F)C(=O)N1C[C@H]2[C@@H]([C@H]1C(=O)N[C@H](/C=C/C(N)=O)C[C@@H]1CCNC1=O)C2(C)C`, which EC50 is on record?
A: Its EC50 is over 5000 nM.

Q: How did the EC50 turn out when `CC(C)(C)[C@H](NC(=O)C(F)(F)F)C(=O)N1C[C@H]2[C@@H]([C@H]1C(=O)N[C@H](C#N)C[C@@H]1CCNC1=O)C2(C)C` [NIRMATRELVIR] was run?
A: The EC50 was 23 nM.

Source: ChEMBL document CHEMBL6092138, “Discovery of the potent covalent inhibitor with an acrylate warhead for SARS-CoV-2 3CL protease” (Bioorg Med Chem Lett, 2024)
